Target: T1, 5-HT1D -like receptor (Oryctolagus cuniculus, UniProt P49144)
T1 construct: Ring segments of the vein (4-5 mm in length) were cut and the endothelium gently removed; from tissue; host or cells: saphenous vein rings, endothelium removed, male New Zealand White rabbit
Experiment: 5-HT1D-like receptor agonist activity: contraction of the rabbit isolated saphenous vein
Set-up: species or system rabbit (New Zealand White)
Conditions: rabbit isolated saphenous vein rings, endothelium removed, 37° C., pH 7.4; prazosin, idazoxan and indomethacin (1 μM each) present; read-out: EC50 (concentration of the compound which causes 50% of the maximum contraction effected by it)
Description: The saphenous veins from both the left and right side were cleaned of fat and connective tissue and placed in Krebs solution (118 mM NaCl, 11 mM glucose, 25 mM NaHCO3, 4.7 mM KCl, 2.5 mM CaCl2.2H2 O, 1.2 mM KH2 PO4, and 1.2 mM MgSO4.7H2 O. Ring segments of the vein (4-5 mm in length) were cut and the endothelium gently removed. The segments were mounted in 10 mL baths containing Krebs buffer and were constantly aerated with 95% oxygen/5% carbon dioxide and maintained at 37° C. and pH 7.4 in order to record the isometric tension. A resting tension of 2.5 g was applied and the tissues allowed to equilibrate for 90 minutes, with washing every 15-20 minutes. After the equilibrium period, the rings were depolarized by the addition of two aliquots of KCl (80 mM final concentration) separated by a 20 minute washing period. The tissues were then exposed to prazosin, idazoxan and indomethacin (all 1 μM final concentration) for 30 minutes in order to exclude the actions of α1 - and α2 -adrenergic receptors and prostaglandin receptors respectively. […] Responses were calculated as a percentage of the maximal contraction evoked by 80 mM KCl. Only one compound was tested per preparation.
EC50 represents the concentration of the compound which causes 50% of the maximum contraction effected by it.

T1 sequence (P49144 whole entry): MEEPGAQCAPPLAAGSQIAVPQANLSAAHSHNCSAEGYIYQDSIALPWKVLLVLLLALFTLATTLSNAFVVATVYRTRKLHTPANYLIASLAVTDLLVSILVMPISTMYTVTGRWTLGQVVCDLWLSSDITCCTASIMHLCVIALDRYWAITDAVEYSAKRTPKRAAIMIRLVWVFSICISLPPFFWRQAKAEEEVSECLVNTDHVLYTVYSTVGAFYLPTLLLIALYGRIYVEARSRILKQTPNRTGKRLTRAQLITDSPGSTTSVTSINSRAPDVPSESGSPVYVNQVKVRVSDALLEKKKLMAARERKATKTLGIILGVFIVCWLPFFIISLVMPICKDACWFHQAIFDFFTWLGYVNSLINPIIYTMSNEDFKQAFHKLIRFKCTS

| Compound | EC50 [µM] |
| --- | --- |
| Cc1cc(C(C)(C)C)cc(C)c1Cc1ncc[nH]1 | 0.13 |
| Cc1cc(Br)cc(C)c1Cc1ncc[nH]1 | 9.3 |
